Measured values published in ChEMBL document CHEMBL4334492, “Nectriatide, a Potentiator of Amphotericin B Activity from Nectriaceae sp. BF-0114” (J Nat Prod, 2019).
Converted amounts (≈) assume the structure as drawn. The source made the active and inactive calls. No cut-off for these calls is given here.

Tests used:
HEK293 [1] = assay: Cytotoxicity against human HEK293 cells assessed as reduction in cell viability after 24 hrs by MTT assay; type: cell-based; conditions: HEK293, 24 h
Candida albicans [2] = assay: Potentiation of amphotericin-induced antifungal activity against Candida albicans ATCC 90029 assessed as fold reduction in amphotericin MIC at 16 ug/ml after 24 hrs by broth microdilution method relative to amphotericin MIC alone; type: functional
Candida albicans [3] = assay: Potentiation of amphotericin-induced antifungal activity against Candida albicans ATCC 90029 assessed as fold reduction in amphotericin MIC at 32 ug/ml after 24 hrs by broth microdilution method relative to amphotericin MIC alone; type: functional
Candida albicans [4] = assay: Potentiation of amphotericin-induced antifungal activity against Candida albicans ATCC 90029 assessed as amphotericin MIC at 16 ug/ml after 24 hrs by broth microdilution method (reference value: 0.5 ug/ml); type: functional; conditions: ATCC 90029, 24 h
Candida albicans [5] = assay: Potentiation of amphotericin-induced antifungal activity against Candida albicans ATCC 90029 assessed as fold reduction in amphotericin MIC at 8 ug/ml after 24 hrs by broth microdilution method relative to amphotericin MIC alone; type: functional
Candida albicans [6] = assay: Potentiation of amphotericin-induced antifungal activity against Candida albicans ATCC 90029 assessed as amphotericin MIC at 8 ug/ml after 24 hrs by broth microdilution method (reference value: 0.5 ug/ml); type: functional; conditions: ATCC 90029, 24 h
Candida albicans [7] = assay: Potentiation of amphotericin-induced antifungal activity against Candida albicans ATCC 90029 assessed as amphotericin MIC at 32 ug/ml after 24 hrs by broth microdilution method (reference value: 0.5 ug/ml); type: functional; conditions: ATCC 90029, 24 h
HEK293 [8] = assay: Cytotoxicity against human HEK293 cells at 128 ug/ml after 24 hrs by MTT assay; type: cell-based; conditions: hek293, 24 h
Rhizopus arrhizus [9] = assay: Potentiation of amphotericin-induced antifungal activity against Rhizopus oryzae NBRC4705 assessed as amphotericin MIC at 8 ug/ml after 24 hrs by broth microdilution assay (reference value: 1 ug/ml); type: functional; conditions: NBRC4705, 24 h
Candida albicans [10] = assay: Potentiation of miconazole-induced antifungal activity against Candida albicans ATCC 90029 at 64 ug/ml after 24 hrs by broth microdilution assay; type: functional, organism-based
Aspergillus niger [11] = assay: Potentiation of amphotericin-induced antifungal activity against Aspergillus niger ATCC 6275 assessed as amphotericin MIC at 32 ug/ml after 48 hrs by broth microdilution method (reference value: 0.25 ug/ml); type: functional; conditions: ATCC 6275, 48 h
Saccharomyces cerevisiae [12] = assay: Potentiation of amphotericin-induced antifungal activity against Saccharomyces cerevisiae S288c assessed as amphotericin MIC after 24 hrs by broth microdilution assay (reference value: 0.5 ug/ml); type: functional, organism-based
Rhizopus arrhizus [13] = assay: Potentiation of amphotericin-induced antifungal activity against Rhizopus oryzae NBRC4705 assessed as amphotericin MIC at 16 ug/ml after 24 hrs by broth microdilution assay (reference value: 1 ug/ml); type: functional; conditions: NBRC4705, 24 h
Rhizopus arrhizus [14] = assay: Potentiation of amphotericin-induced antifungal activity against Rhizopus oryzae NBRC4705 assessed as amphotericin MIC after 24 hrs by broth microdilution assay (reference value: 1 ug/ml); type: functional, organism-based
Rhizopus arrhizus [15] = assay: Potentiation of amphotericin-induced antifungal activity against Rhizopus oryzae NBRC4705 assessed as fold reduction in amphotericin MIC at 32 ug/ml after 24 hrs by broth microdilution assay relative to amphotericin MIC alone; type: functional
Rhizopus arrhizus [16] = assay: Potentiation of amphotericin-induced antifungal activity against Rhizopus oryzae NBRC4705 assessed as amphotericin MIC at 4 ug/ml after 24 hrs by broth microdilution assay (reference value: 1 ug/ml); type: functional; conditions: NBRC4705, 24 h
Saccharomyces cerevisiae [17] = assay: Potentiation of amphotericin-induced antifungal activity against Saccharomyces cerevisiae S288c assessed as fold reduction in amphotericin MIC at 16 ug/ml after 24 hrs by broth microdilution assay relative to amphotericin MIC alone; type: functional
HaCaT = assay: Cytotoxicity against human HaCaT cells assessed as reduction in cell viability at 128 ug/ml after 24 hrs by MTT assay; type: cell-based
Saccharomyces cerevisiae [18] = assay: Potentiation of amphotericin-induced antifungal activity against Saccharomyces cerevisiae S288c assessed as amphotericin MIC at 2 ug/ml after 24 hrs by broth microdilution assay (reference value: 0.5 ug/ml); type: functional
Rhizopus arrhizus [19] = assay: Potentiation of amphotericin-induced antifungal activity against Rhizopus oryzae NBRC4705 assessed as fold reduction in amphotericin MIC at 8 ug/ml after 24 hrs by broth microdilution assay relative to amphotericin MIC alone; type: functional
Saccharomyces cerevisiae [20] = assay: Potentiation of amphotericin-induced antifungal activity against Saccharomyces cerevisiae S288c assessed as amphotericin MIC at 16 ug/ml after 24 hrs by broth microdilution assay (reference value: 0.5 ug/ml); type: functional
Rhizopus arrhizus [21] = assay: Potentiation of amphotericin-induced antifungal activity against Rhizopus oryzae NBRC4705 assessed as fold reduction in amphotericin MIC at 4 ug/ml after 24 hrs by broth microdilution assay relative to amphotericin MIC alone; type: functional
Saccharomyces cerevisiae [22] = assay: Potentiation of amphotericin-induced antifungal activity against Saccharomyces cerevisiae S288c assessed as amphotericin MIC at 4 ug/ml after 24 hrs by broth microdilution assay (reference value: 0.5 ug/ml); type: functional
Saccharomyces cerevisiae [23] = assay: Potentiation of amphotericin-induced antifungal activity against Saccharomyces cerevisiae S288c assessed as fold reduction in amphotericin MIC at 32 ug/ml after 24 hrs by broth microdilution assay relative to amphotericin MIC alone; type: functional
Rhizopus arrhizus [24] = assay: Potentiation of amphotericin-induced antifungal activity against Rhizopus oryzae NBRC4705 assessed as fold reduction in amphotericin MIC at 16 ug/ml after 24 hrs by broth microdilution assay relative to amphotericin MIC alone; type: functional
Aspergillus niger [25] = assay: Potentiation of amphotericin-induced antifungal activity against Aspergillus niger ATCC 6275 assessed as fold reduction in amphotericin MIC at 32 ug/ml after 48 hrs by broth microdilution method relative to amphotericin MIC alone; type: functional
Saccharomyces cerevisiae [26] = assay: Potentiation of amphotericin-induced antifungal activity against Saccharomyces cerevisiae S288c assessed as fold reduction in amphotericin MIC at 2 ug/ml after 24 hrs by broth microdilution assay relative to amphotericin MIC alone; type: functional
Saccharomyces cerevisiae [27] = assay: Potentiation of amphotericin-induced antifungal activity against Saccharomyces cerevisiae S288c assessed as amphotericin MIC at 32 ug/ml after 24 hrs by broth microdilution assay (reference value: 0.5 ug/ml); type: functional
Saccharomyces cerevisiae [28] = assay: Potentiation of amphotericin-induced antifungal activity against Saccharomyces cerevisiae S288c assessed as fold reduction in amphotericin MIC at 4 ug/ml after 24 hrs by broth microdilution assay relative to amphotericin MIC alone; type: functional
Saccharomyces cerevisiae [29] = assay: Potentiation of amphotericin-induced antifungal activity against Saccharomyces cerevisiae S288c assessed as amphotericin MIC at 8 ug/ml after 24 hrs by broth microdilution assay (reference value: 0.5 ug/ml); type: functional
Rhizopus arrhizus [30] = assay: Potentiation of amphotericin-induced antifungal activity against Rhizopus oryzae NBRC4705 assessed as amphotericin MIC at 32 ug/ml after 24 hrs by broth microdilution assay (reference value: 1 ug/ml); type: functional; conditions: NBRC4705, 24 h
Rhizopus arrhizus [31] = assay: Potentiation of amphotericin-induced antifungal activity against Rhizopus oryzae NBRC4705 assessed as fold reduction in amphotericin MIC at 2 ug/ml after 24 hrs by broth microdilution assay relative to amphotericin MIC alone; type: functional
Jurkat = assay: Cytotoxicity against human Jurkat cells at 128 ug/ml after 24 hrs by MTT assay; type: cell-based
Saccharomyces cerevisiae [32] = assay: Potentiation of amphotericin-induced antifungal activity against Saccharomyces cerevisiae S288c assessed as fold reduction in amphotericin MIC at 8 ug/ml after 24 hrs by broth microdilution assay relative to amphotericin MIC alone; type: functional
HCT-116 = assay: Cytotoxicity against human HCT116 cells at 128 ug/ml after 24 hrs by MTT assay; type: cell-based; conditions: hct-116, 24 h
Rhizopus arrhizus [33] = assay: Potentiation of amphotericin-induced antifungal activity against Rhizopus oryzae NBRC4705 assessed as amphotericin MIC at 2 ug/ml after 24 hrs by broth microdilution assay (reference value: 1 ug/ml); type: functional; conditions: NBRC4705, 24 h
Candida albicans [34] = assay: Potentiation of micafungin-induced antifungal activity against Candida albicans ATCC 90029 at 64 ug/ml after 24 hrs by broth microdilution assay; type: functional, organism-based

Work on `C[C@@H]1[C@H](O)[C@@H](C)/C=C/C=C/C=C/C=C/C=C/C=C/C=C/[C@H](O[C@@H]2O[C@H](C)[C@@H](O)[C@H](N)[C@@H]2O)C[C@@H]2O[C@](O)(C[C@@H](O)C[C@@H](O)[C@H](O)CC[C@@H](O)C[C@@H](O)CC(=O)O[C@H]1C)C[C@H](O)[C@H]2C(=O)O` [AMPHOTERICIN B] yielded an IC50 (HEK293 [1]) of 15 µg/mL (≈ 16.2 µM).
`CC(C)[C@H]1NC(=O)[C@H](C)NC(=O)c2ccccc2NC(=O)[C@H](Cc2ccc(O)cc2)N(C)C1=O` showed a Ratio (Candida albicans [2]) of 8, a Ratio (Candida albicans [3]) of 16 and an MIC (Candida albicans [4]) of 0.063 µg/mL. The Ratio (Candida albicans [5]) was 4, the MIC (Candida albicans [6]) was 0.13 µg/mL and the MIC (Candida albicans [7]) was 0.031 µg/mL.
Work on `CN[C@@H](Cc1ccc(OC(C)(C)C)cc1)C(=O)Nc1ccccc1C(=O)O` yielded a Ratio (Candida albicans [3]) of 4 and an MIC (Candida albicans [7]) of 0.13 µg/mL.
`CC(C)[C@@H]1NC(=O)[C@H](C)NC(=O)c2ccccc2NC(=O)[C@H](Cc2ccc(O)cc2)N(C)C1=O` was tested, and the Activity (HEK293 [8]) was “Non-Toxic”, the MIC (Rhizopus arrhizus [9]) was 0.25 µg/mL and the Activity (Candida albicans [10]) was “inactive”. For the same compound, the MIC (Aspergillus niger [11]) was 0.25 µg/mL, the Activity (Saccharomyces cerevisiae [12]) was “Dose-dependent effect” and the MIC (Rhizopus arrhizus [13]) was 0.25 µg/mL. For the same compound, the Activity (Rhizopus arrhizus [14]) was “Dose-dependent effect”, the Ratio (Rhizopus arrhizus [15]) was 4 and the MIC (Rhizopus arrhizus [16]) was 0.5 µg/mL. The Ratio (Saccharomyces cerevisiae [17]) was 16, the Activity (HaCaT) was “Non-Toxic” and the MIC (Saccharomyces cerevisiae [18]) was 0.13 µg/mL. It also gave a Ratio (Candida albicans [2]) of 8, a Ratio (Rhizopus arrhizus [19]) of 4 and an MIC (Saccharomyces cerevisiae [20]) of 0.031 µg/mL. The Ratio (Candida albicans [3]) was 16, the MIC (Candida albicans [4]) was 0.063 µg/mL and the Ratio (Rhizopus arrhizus [21]) was 2. It also gave an MIC (Saccharomyces cerevisiae [22]) of 0.13 µg/mL, a Ratio (Saccharomyces cerevisiae [23]) of 16 and a Ratio (Rhizopus arrhizus [24]) of 4. For the same compound, the Ratio (Aspergillus niger [25]) was 1, the Ratio (Saccharomyces cerevisiae [26]) was 4 and the MIC (Saccharomyces cerevisiae [27]) was 0.031 µg/mL. It also gave a Ratio (Saccharomyces cerevisiae [28]) of 4, an MIC (Saccharomyces cerevisiae [29]) of 0.063 µg/mL and an MIC (Rhizopus arrhizus [30]) of 0.25 µg/mL. For the same compound, the Ratio (Rhizopus arrhizus [31]) was 2, the Activity (Jurkat) was “Non-Toxic” and the Ratio (Saccharomyces cerevisiae [32]) was 8. The Activity (HCT-116) was “Non-Toxic”, the MIC (Rhizopus arrhizus [33]) was 0.5 µg/mL and the Ratio (Candida albicans [5]) was 4. The Activity (Candida albicans [34]) was “inactive”, the MIC (Candida albicans [6]) was 0.13 µg/mL and the IC50 (HEK293 [1]) was > 128 µg/mL. For the same compound, the MIC (Candida albicans [7]) was 0.031 µg/mL.
`Nc1ccccc1C(=O)O` [ANTHRANILIC ACID] showed a Ratio (Candida albicans [3]) of 1 and an MIC (Candida albicans [7]) of 0.5 µg/mL.
Compound `CN[C@@H](Cc1ccc(OC(C)(C)C)cc1)C(=O)Nc1ccccc1C(=O)N[C@@H](C)C(=O)O` has a Ratio (Candida albicans [3]) of 2 and an MIC (Candida albicans [7]) of 0.25 µg/mL.
